Test results taken from publication PMC10963303 (Pharmacology Research & Perspectives, 2024).
Where two headings read alike, the source gives them in different places.

How the values were obtained:
[1] = test system: human P‐gp, BCRP, BSEP, MATE1, MATE2‐K, OAT1, OAT3, OATP1B1, OATP1B3, OCT1, OCT2; settings: tested transporter panel (ulotaront: except OCT2); cited from earlier work
[2] = test system: 80 known receptors, ion channels, and enzyme targets; experiment: Screen of 80 known receptors, ion channels, and enzyme targets; settings: concentrations up to 10 μM; internal data
OAT3 = settings: at 50 μM; cited from earlier work
MATE1 = settings: at 50 μM; cited from earlier work
[3] = human, in vivo, po, 100 mg
OCT2 [4] = target: T1, OCT2 (Homo sapiens, UniProt O15244); design: […]; from tissue; host or cells: kidney of adult human subjects with schizophrenia (in vivo clinical study); settings: cited from earlier work
T1 sequence (O15244 1-555): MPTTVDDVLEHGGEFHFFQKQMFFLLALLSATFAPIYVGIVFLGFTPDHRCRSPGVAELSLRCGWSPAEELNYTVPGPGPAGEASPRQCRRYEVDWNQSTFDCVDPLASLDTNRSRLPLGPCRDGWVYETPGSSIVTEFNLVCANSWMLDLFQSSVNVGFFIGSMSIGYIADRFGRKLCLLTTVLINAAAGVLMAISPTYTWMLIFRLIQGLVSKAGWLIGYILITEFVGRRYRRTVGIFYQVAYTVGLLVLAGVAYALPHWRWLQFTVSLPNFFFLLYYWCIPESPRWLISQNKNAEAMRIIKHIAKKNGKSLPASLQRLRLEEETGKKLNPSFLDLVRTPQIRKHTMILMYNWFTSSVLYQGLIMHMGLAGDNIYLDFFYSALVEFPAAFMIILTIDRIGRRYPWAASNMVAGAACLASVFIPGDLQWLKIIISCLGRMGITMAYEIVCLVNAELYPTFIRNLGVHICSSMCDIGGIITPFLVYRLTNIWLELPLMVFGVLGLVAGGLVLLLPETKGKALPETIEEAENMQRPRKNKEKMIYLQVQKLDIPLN

clinical = settings: human, in vivo
OCT2 [5] = target: T1, OCT2; experiment: clinical; settings: plasma, oral
[6] = plasma; placebo + metformin‐HCl 850 mg single dose

O=C(O)[C@@H]1OCCc2ccsc21 [SEP‐383103]
inhibitor of human efflux and uptake transporters [1]: not an inhibitor | binding or functional activity in screen of 80 targets [2]: did not identify binding or functional activity | inhibition of OAT3 (OAT3): ~ 35% | inhibition of MATE1 (MATE1): ~ 20% | AUCinf, Geometric mean (CV%) [3]: 2510 (30.1) ng * h/mL | AUCinf, Mean (SD) [3]: 2620 (797) ng * h/mL | AUCinf, Median (min, max) [3]: 2490 (1550, 4810) ng * h/mL | AUClast, Geometric mean (CV%) [3]: 2520 (29.7) ng * h/mL | AUClast, Mean (SD) [3]: 2630 (780) ng * h/mL | AUClast, Median (min, max) [3]: 2490 (1540, 4760) ng * h/mL | C max, Geometric mean (CV%) [3]: 150 (22.6) ng/mL | C max, Mean (SD) [3]: 154 (34.9) ng/mL | C max, Median (min, max) [3]: 156 (99.7, 255) ng/mL | t 1/2, Mean (SD) [3]: 9.17 (1.78) h | t max, Median (min, max) [3]: 6.00 (3.00, 8.00) h

C[C@@H]1CCO[C@H]2Cn3cc(C(=O)NCc4ccc(F)cc4F)c(=O)c(O)c3C(=O)N12 [dolutegravir]
increase of metformin AUC (OCT2 [4]; co‐administration of 50 mg dolutegravir bid): 145% | increase of metformin AUC (OCT2 [4]; co‐administration of 50 mg dolutegravir qd): 79% | unbound C max/IC50 ratio (OCT2) (OCT2 [4]; dolutegravir oral 50 mg qd or bid): 2–3.6

CN(C)C(=N)N=C(N)N [metformin]
Cmax (clinical): 1130 ng/mL | Tmax (clinical): 4.5 h | Vd/F (clinical): 1280 L | CL renal (clinical; po, 850 mg): 287 mL/min | AUC(0-inf) (OCT2 [5]): 12500 ng·h/mL | t max, Median (min, max) [6]: 4.0 (2.0, 5.0) h
